Results from PubChem BioAssay AID292 (DTP/NCI, 2004).
Values joined by “and” are separate entries in the source; they are usually repeats but may differ in a detail not shown here. Equal entries are not always repeated. Toxic doses and inconclusive results are not listed.

System: B6C3F1 mice, ip Sarcoma M5076, median survival T/C
Assay: NCI In Vivo Anticancer Drug Screen. Data for tumor model Sarcoma M5076 (intraperitoneal) in B6C3F1 mice
Details: endpoint: median survival time, higher = longer survival
How it was run: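 Tumour cells were transplanted into mice, compound or vehicle was given, survival of both groups was followed, and the treated figure was expressed over the control figure.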

[1] = dose: 37.5 mg/kg/injection, schedule: Q04DX004 (ip), vehicle: saline with Tween-80
[2] = dose: 75.0 mg/kg/injection, schedule: Q04DX004 (ip), vehicle: saline with Tween-80
[3] = dose: 150.0 mg/kg/injection, schedule: Q04DX004 (ip), vehicle: saline with Tween-80
[4] = dose: 50.0 mg/kg/injection, schedule: Q04DX004 (ip), vehicle: saline with Tween-80
[5] = dose: 50.0 mg/kg/injection, schedule: Q04DX004 (ip), vehicle: sodium bicarbonate
[6] = dose: 100.0 mg/kg/injection, schedule: Q04DX004 (ip), vehicle: saline with Tween-80
[7] = dose: 200.0 mg/kg/injection, schedule: Q04DX004 (ip), vehicle: saline with Tween-80
[8] = dose: 200.0 mg/kg/injection, schedule: Q04DX004 (ip), vehicle: sodium bicarbonate
[9] = dose: 400.0 mg/kg/injection, schedule: Q04DX004 (ip), vehicle: saline with Tween-80
[10] = dose: 50.0 mg/kg/injection, schedule: Q04DX004 (ip), vehicle: Klucel (hydroxypropylcellulose) (HPC)
[11] = dose: 100.0 mg/kg/injection, schedule: Q04DX004 (ip), vehicle: Klucel (hydroxypropylcellulose) (HPC)
[12] = dose: 200.0 mg/kg/injection, schedule: Q04DX004 (ip), vehicle: Klucel (hydroxypropylcellulose) (HPC)
[13] = dose: 400.0 mg/kg/injection, schedule: Q04DX004 (ip), vehicle: Klucel (hydroxypropylcellulose) (HPC)
[14] = dose: 800.0 mg/kg/injection, schedule: Q04DX004 (ip), vehicle: Klucel (hydroxypropylcellulose) (HPC)
[15] = dose: 18.75 mg/kg/injection, schedule: Q04DX004 (ip), vehicle: saline with Tween-80
[16] = dose: 25.0 mg/kg/injection, schedule: Q04DX004 (ip), vehicle: saline with Tween-80

With `C=CCCC(=O)CCCC(=O)O[C@@H]1[C@@H]2[C@H](CC1(C)C)[C@H](O)[C@@]13O[C@@H]1[C@H](O)[C@@]1(CO1)[C@@]23C` the T/C (dose: 50.0 micrograms/kg/injection, schedule: Q04DX004 (ip), vehicle: Klucel (hydroxypropylcellulose) (HPC)) was 92 % of control, the T/C (dose: 100.0 micrograms/kg/injection, schedule: Q04DX004 (ip), vehicle: Klucel (hydroxypropylcellulose) (HPC)) was 96 % of control and the T/C (dose: 200.0 micrograms/kg/injection, schedule: Q04DX004 (ip), vehicle: Klucel (hydroxypropylcellulose) (HPC)) was 96 % of control. The T/C (dose: 400.0 micrograms/kg/injection, schedule: Q04DX004 (ip), vehicle: Klucel (hydroxypropylcellulose) (HPC)) was 96 % of control and the T/C (dose: 800.0 micrograms/kg/injection, schedule: Q04DX004 (ip), vehicle: Klucel (hydroxypropylcellulose) (HPC)) was 93 % of control.

In the case of `CCN(CC)C(=Nc1ccc(Cl)c(Cl)c1)SC(NC=O)=C(Cl)Cl`, the T/C (dose: 50.0 mg/kg/injection, schedule: Q04DX004 (ip), vehicle: Klucel + Tween-80) is reported as 104 % of control, the T/C (dose: 100.0 mg/kg/injection, schedule: Q04DX004 (ip), vehicle: Klucel + Tween-80) is reported as 97 % of control and the T/C (dose: 200.0 mg/kg/injection, schedule: Q04DX004 (ip), vehicle: Klucel + Tween-80) is reported as 91 % of control.

For `Cn1nc2c(c(Cl)c1=O)Nc1ccccc1O2`, the T/C [1] was 104 % of control, the T/C [2] was 97 % of control and the T/C [3] was 96 % of control.

For `Nc1cc2c(cc1Br)-c1c(C(=O)O)cccc1C2O` (stereo not given), the T/C [4] was 96 % of control, the T/C [5] was 94 % of control and the T/C [6] was 97 % of control. The T/C (dose: 100.0 mg/kg/injection, schedule: Q04DX004 (ip), vehicle: sodium bicarbonate) was 100 % of control, the T/C [7] was 101 % of control and the T/C [8] was 109 % of control. For the same molecule, the T/C [9] was 109 % of control, the T/C (dose: 400.0 mg/kg/injection, schedule: Q04DX004 (ip), vehicle: sodium bicarbonate) was 107 % of control and the T/C (dose: 683.0 mg/kg/injection, schedule: Q04DX004 (ip), vehicle: saline with Tween-80) was 103 % of control. For the same molecule, the T/C (dose: 800.0 mg/kg/injection, schedule: Q04DX004 (ip), vehicle: sodium bicarbonate) was 118 % of control.

With `CN1CCC2CC1c1ccn(C)c1C2=O` (stereo not given) the T/C (dose: 3.75 mg/kg/injection, schedule: Q04DX004 (ip), vehicle: saline) was 106 % of control, the T/C (dose: 7.5 mg/kg/injection, schedule: Q04DX004 (ip), vehicle: saline) was 102 % of control and the T/C (dose: 15.0 mg/kg/injection, schedule: Q04DX004 (ip), vehicle: saline) was 107 % of control.

For `COC12[C@@H]3N[C@@H]3CN1C1=C(C(=O)C(NCCSSCCNC3=C(C)C(=O)C4=C(C3=O)C(COC(N)=O)[C@]3(OC)C5N[C@@H]5CN43)=C(C)C1=O)[C@@H]2COC(N)=O` (stereo not given in full), the T/C (dose: 3.0 mg/kg/injection, schedule: Q04DX004 (ip), vehicle: other) was 161 % of control, the T/C (dose: 6.0 mg/kg/injection, schedule: Q04DX004 (ip), vehicle: other) was 216 % of control and the T/C (dose: 12.0 mg/kg/injection, schedule: Q04DX004 (ip), vehicle: other) was 91 % of control. For the same molecule, the T/C (dose: 12.5 mg/kg/injection, schedule: Q04DX004 (ip), vehicle: other) was 253 % of control.

`CC1C=NNC1=O` (stereo not given) was tested, and the T/C [10] was 103 % of control, the T/C [11] was 101 % of control and the T/C [12] was 121 % of control. The T/C [13] was 102 % of control and the T/C [14] was 112 % of control.

With `O=c1[nH]cnc2c1ncn2C1CC2[O][Sn]([c]3ccccc3)([c]3ccccc3)[O]CC2O1` (stereo not given) the T/C (dose: 37.5 mg/kg/injection, schedule: Q04DX004 (ip), vehicle: distilled water + Tween-80) was 106 % of control, the T/C (dose: 75.0 mg/kg/injection, schedule: Q04DX004 (ip), vehicle: distilled water + Tween-80) was 104 % of control and the T/C (dose: 150.0 mg/kg/injection, schedule: Q04DX004 (ip), vehicle: distilled water + Tween-80) was 101 % of control. The T/C (dose: 300.0 mg/kg/injection, schedule: Q04DX004 (ip), vehicle: distilled water + Tween-80) was 105 % of control and the T/C (dose: 600.0 mg/kg/injection, schedule: Q04DX004 (ip), vehicle: distilled water + Tween-80) was 110 % of control.

`CC(C)(O)/C=C/C(=O)[C@](C)(O)[C@H]1[C@H](O)C[C@@]2(C)[C@@H]3CC=C4[C@@H](C=C(O)C(=O)C4(C)C)[C@]3(C)C(=O)C[C@]12C` was tested, and the T/C (dose: 0.5 mg/kg/injection, schedule: Q04DX004 (ip), vehicle: water) was 111 % of control, the T/C (dose: 1.0 mg/kg/injection, schedule: Q04DX004 (ip), vehicle: water) was 117 % of control and the T/C (dose: 1.67 mg/kg/injection, schedule: Q04DX004 (ip), vehicle: water) was 113 % of control.

In the case of `N=C1C=CC2C(=Nc3ccccc3[N+]2=O)N1Cc1ccncc1` (stereo not given), the T/C [15] is reported as 95 % of control, the T/C [1] is reported as 93 % of control and the T/C [2] is reported as 91 % of control. For the same molecule, the T/C [3] was 87 % of control and the T/C (dose: 300.0 mg/kg/injection, schedule: Q04DX004 (ip), vehicle: saline with Tween-80) was 87 % of control.

In the case of `Cc1c2ccccc2c(C)c2c1cc(C(=O)O)c1ccccc12`, the T/C (dose: 12.5 mg/kg/injection, schedule: Q04DX004 (ip), vehicle: sodium bicarbonate) is reported as 113 % of control, the T/C (dose: 25.0 mg/kg/injection, schedule: Q04DX004 (ip), vehicle: sodium bicarbonate) is reported as 113 % of control and the T/C [5] is reported as 113 % of control. The T/C [8] was 124 % of control.

`C/C([O-])=c1\c(C)nn2ccc[n+]12` was tested, and the T/C [16] was 100 % of control, the T/C [4] was 106 % of control and the T/C [6] was 103 % of control. For the same molecule, the T/C [7] was 94 % of control.

With `CN1C(=O)C(=O)N(Cc2ccc(CN3C(=O)C(=O)N(C)C3=O)cc2)C1=O` the T/C [10] was 98 % of control, the T/C [11] was 94 % of control and the T/C [12] was 115 % of control. The T/C [13] was 92 % of control.

With `NCCn1c(-c2ccccc2)nc2ccccc2c1=O` the T/C (dose: 25.0 mg/kg/injection, schedule: Q04DX004 (ip), vehicle: Klucel (hydroxypropylcellulose) (HPC)) was 106 % of control, the T/C [10] was 102 % of control and the T/C [11] was 109 % of control. For the same molecule, the T/C [12] was 94 % of control.

`CCN(CC)Cc1cc2[nH]c3c4ccc(Cl)cc4ncc3c2cc1OC` (tested in a mixture with another compound) was tested, and the T/C [15] was 104 % of control, the T/C [16] was 117 % of control and the T/C [1] was 112 % of control. For the same molecule, the T/C [4] was 110 % of control, the T/C [2] was 99 % of control and the T/C [6] was 105 % of control.

For `CC(C)(C)c1ccc(C(=O)N2CCOC23CCCCC3)cc1`, the T/C [4] was 101 % of control and 103 % of control, the T/C [6] was 93 % of control and 103 % of control and the T/C [7] was 97 % of control and 98 % of control. The T/C [9] was 91 % of control and 100 % of control and the T/C (dose: 800.0 mg/kg/injection, schedule: Q04DX004 (ip), vehicle: saline with Tween-80) was 89 % of control and 93 % of control.

In the case of `COc1ccc(CCN2C(=O)C(=O)N(c3ccc(Cl)c(Cl)c3)C2=O)cc1OC`, the T/C [10] is reported as 99 % of control, the T/C [11] is reported as 98 % of control and the T/C [12] is reported as 94 % of control. For the same molecule, the T/C [13] was 89 % of control and the T/C [14] was 93 % of control.

With `CC(CN1CC(=O)NC(=O)C1)N1CC(=O)NC(=O)C1` (stereo not given) the T/C (dose: 25.0 mg/kg/injection, schedule: Q04DX005 (ip), vehicle: saline with Tween-80) was 118 % of control and the T/C (dose: 50.0 mg/kg/injection, schedule: Q04DX005 (ip), vehicle: saline with Tween-80) was 103 % of control.

In the case of `O=C(O)c1nn(-c2ccccc2-c2n[nH]c(=O)[nH]c2=O)c(=O)[nH]c1=O`, the T/C [4] is reported as 101 % of control, the T/C [6] is reported as 100 % of control and the T/C [7] is reported as 92 % of control.

In the case of `Oc1ccc(/C=N/Nc2nnc(N/N=C/c3ccc(O)cc3O)c3ccccc23)c(O)c1`, the T/C (dose: 6.25 mg/kg/injection, schedule: Q04DX004 (ip), vehicle: suspension in saline) is reported as 108 % of control, the T/C (dose: 12.5 mg/kg/injection, schedule: Q04DX004 (ip), vehicle: suspension in saline) is reported as 109 % of control and the T/C (dose: 25.0 mg/kg/injection, schedule: Q04DX004 (ip), vehicle: suspension in saline) is reported as 109 % of control. The T/C (dose: 50.0 mg/kg/injection, schedule: Q04DX004 (ip), vehicle: suspension in saline) was 109 % of control and the T/C (dose: 100.0 mg/kg/injection, schedule: Q04DX004 (ip), vehicle: suspension in saline) was 119 % of control.

`O=C(Nc1ccc2ccccc2c1)C1C(=O)C(=O)N(c2ccc3ccccc3c2)C1=O` (stereo not given) was tested, and the T/C [10] was 100 % of control, the T/C [11] was 100 % of control and the T/C [12] was 93 % of control.

`CN(C)N=Nc1ccc(C(N)=O)cc1` was tested, and the T/C [16] was 120 % of control and 121 % of control, the T/C [6] was 151 % of control and the T/C [7] was 163 % of control. The T/C [9] was 109 % of control.
